Converted amounts (≈) assume the structure as drawn. Like-named read-outs stand apart in the source and are kept apart here.
Experiments:
P. aeruginosa ATCC 27853 = test: IHMA QC MIC; type: cell-based; conditions: for MIC: Pseudomonas aeruginosa
physchem = type: physicochemical
Method: For the PBS, 2.38 g of disodium hydrogen phosphate dodecahydrate, 0.19 g of potassium dihydrogen phosphate, and 8.0 g of sodium chloride were added to distilled water (900 mL), and the solution was mixed overnight. […] Samples were prepared by weighing the exact mass of solid compounds (about 1 mg), and then, the appropriate volume of PBS was added to reach the final concentration of ∼1 mg/mL. […] The supernatant was diluted 3× with a 1:1 mixture of 0.1% TFA in water and acetonitrile and analyzed by HPLC. For the 7-point calibration curves, concentrated stock solutions of the compounds were prepared at concentrations of 10 and 0.5 mM in DMSO, which were diluted with a 1:1 mixture of 0.1% TFA in water and acetonitrile to the desired final concentrations and analyzed by HPLC. Results are given in μM as an average value of two independent experiments. For details on calibration curves, concentrations, analytical method, and HPLC method, see the Supporting Information.
Thermodynamic solubility assay
To determine thermodynamic solubility of compounds in PBS, calibration curves for the assayed compounds were prepared using seven concentrations. First, DMSO stock solutions of compounds at 10 mM and 0.5 mM concentration were prepared and then diluted (0.1% TFA in […]
Quality control (QC) samples were diluted from stock solutions with a 1:1 mixture of 0.1% TFA in water and acetonitrile to final concentrations of 60 µM, 20 µM, and 2 µM (6 µM, 2 µM, and 0.2 µM for 7f or 0.6 µM, 0.2 µM, and 0.02 µM for 7g).
Analytical reversed-phase UHPLC analyses were performed on Thermo Scientific Dionex UltiMate 3000 modular system (Thermo Fisher Scientific Inc., MA, USA). Waters Acquity UPLC® HSS C18 SB column (2.1 × 50 mm, 1.8 μm; Waters, Milford, MA, USA) was used at T […]
Mobile phase consisted of 0.1% trifluoroacetic acid in ultrapure water (solvent A) and acetonitrile […]
The obtained data was processed in Chromeleon CDS software (Thermo Fisher Scientific Inc., […]
Analytical method was tested for accuracy, precision and linear rang. Accuracy was […]
(or 2 or 0.2) µM and 60 (or 6 or 0.6) µM) to their true values and expressed in (%). Values were […]
Method repeatability was determined by calculating the RSD from the separately prepared and analysed quality control samples (n = 3). […] Linearity of the […]
method (1 (or 0.1 or 0.01) µM to 100 (or 10 or 1) µM) was evaluated from the 7-point calibration […]
Solubility was determined in two independent experiments and results were calculated in […]

E. coli ATCC 35218 = test: IHMA QC MIC; type: cell-based; conditions: Escherichia coli, ATCC35218, read-out: MIC (QC, repeated tests)
Method: (§1) The panel of Hungarian clinical isolates and controls measured following the same method as detailed above, and albeit measurements were carried out in 384-well microtiter plates (Corning Inc.).

A. baumannii ATCC 17978 = test: IHMA QC MIC; type: cell-based
Method: as §1

[1] = ATCC27853, QC strain P. aeruginosa ATCC 27853, test date 2021-11-11
[2] = ATCC27853, QC strain P. aeruginosa ATCC 27853, test date 2021-11-26
[3] = pH 7.4, thermodynamic solubility (pH = 7.4)

| Structure (SMILES) | MIC (P. aeruginosa ATCC 27853; [1]) [µg/mL] | MIC (P. aeruginosa ATCC 27853; [2]) [µg/mL] | solubility thermodynamic (physchem; pH 7.4, PBS pH 7.4, read-out: thermodynamic solubility, Experiment 1) [µM] | solubility thermodynamic (physchem; pH 7.4, PBS pH 7.4, read-out: thermodynamic solubility, Experiment 2) [µM] | solubility thermodynamic (physchem; [3]) [µM] | solubility thermodynamic at 48 h (physchem; [3]) [µM] | MIC (E. coli ATCC 35218) [µg/mL] | MIC (A. baumannii ATCC 17978; Acinetobacter baumannii, ATCC17978, read-out: MIC (QC, repeated tests)) [µg/mL] | MIC (QC, repeated tests) (P. aeruginosa ATCC 27853) [µg/mL] | MIC (P. aeruginosa ATCC 27853; ATCC27853, read-out: MIC (QC, repeated tests)) [µg/mL] | solubility thermodynamic at 24 h (physchem; [3]) [µM] | solubility thermodynamic at 24 h (physchem; pH 7.4, thermodynamic solubility, Experiment 1) [µM] | solubility thermodynamic at 24 h (physchem; pH 7.4, thermodynamic solubility, Experiment 2) [µM] | MIC (QC, repeated tests) (A. baumannii ATCC 17978) [µg/mL] |
| --- | --- | --- | --- | --- | --- | --- | --- | --- | --- | --- | --- | --- | --- | --- |
| Cc1[nH]c(C(=O)Nc2nc3c(N4CCOCC4)cc(C(=O)O)cc3s2)c(Cl)c1Cl [7a, 2-(3,4-Dichloro-5-methyl-1H-pyrrole-2-carboxamido)-4-morpholinobenzo[d]thiazole-6-carboxylic Acid] | 64 (≈ 141 µM) | 16 (≈ 35.1 µM) | 100 (≈ 45.5 µg/mL) | 96.6 (≈ 44 µg/mL) | 98.3 (≈ 44.8 µg/mL) | 98 (≈ 44.6 µg/mL) | 4 (≈ 8.78 µM) | 8 (≈ 17.6 µM) | – | – | – | – | – | – |
| Cc1[nH]c(C(=O)Nc2nc3c(N4[C@@H]5CC[C@H]4COC5)cc(C(=O)O)cc3s2)c(Cl)c1Cl [7h, 4-((1R,5S)-3-Oxa-8-azabicyclo[3.2.1]octan-8-yl)-2-(3,4-dichloro-5-methyl-1H-pyrrole-2-carboxamido)benzo[d]thiazole-6-carboxylic Acid] | 16 (≈ 33.2 µM) | 8 (≈ 16.6 µM) | – | – | – | – | 2 (≈ 4.15 µM) | – | 4 (≈ 8.31 µM) | 8 (≈ 16.6 µM) | 3.8 (≈ 1.83 µg/mL) | 3.83 (≈ 1.84 µg/mL) | 3.8 (≈ 1.83 µg/mL) | 1 (≈ 2.08 µM) |

— article PMC10041525, “New Dual Inhibitors of Bacterial Topoisomerases with Broad-Spectrum Antibacterial Activity and In Vivo Efficacy against Vancomycin-Intermediate Staphylococcus aureus” (Journal of Medicinal Chemistry, 2023)
